System: HCV replicon (5-2 Luc replicon-comprising cells)
Assay: HCV replicon assay (luciferase)
Type: cell-based, Hepatitis C virus
Conditions: 5-2 Luc replicon cells, luciferase readout; read-out: Replicon IC50
Excerpt: In one embodiment, the inhibitory activity of the compounds can be confirmed in a replicon assay that assesses the ability of a test compound to block or inhibit HCV replication in replicon cells. One example of a suitable replicon assay is the liver cell-line Huh 7-based replicon assay described in Lohmann et al., 1999, Science 285:110–113. A specific example of this replicon assay which utilizes luciferase translation is provided in the Examples Section. In one embodiment of this assay, the amount of test compound that yields a 50% reduction in translation as compared to a control cell (IC50) may be determined.
The inhibitory activity of certain exemplary compounds of the invention was confirmed using an HCV replicon assay. The HCV replicon can include such features as the HCV 5′ untranslated region including the HCV IRES, the HCV 3′ untranslated region, selected HCV genes encoding HCV polypeptides, selectable markers, and a reporter gene such as luciferase, GFP, etc. In the assay, actively dividing 5-2 Luc replicon-comprising cells (obtained from Ralf Bartenschlager; see Lohmann et al., 1999, Science 285:110–113) were seeded at a density of between about 5,000 and 7,500 cells/well onto 96 well plates (about 90 μl of cells per well) and incubated at 37° C. and 5% CO2 for 24 hours. Then, the test compound (in a volume of about 10 μl) was added to the wells at various concentrations and the cells were incubated for an additional 24 hours before luciferase assay. Briefly, the Bright-Glo reagent was diluted 1:1 with PBS and 100 μl of diluted reagent was added to each well. After 5 min of incubation at room temperature, luciferin emission was quantified with a luminometer. In this assay, the amount of test compound that yielded a 50% reduction in luciferase activity (IC50) was determined.
In TABLE 1, a value of “+” indicates an IC50 of 10 μM or less in the specified assay; a value of “−” indicates an IC50 of greater than 10 μM in the specified assay.

Structure (SMILES) | IC50 [µM]
CC(=O)NC1CCN(c2cccc(Cl)c2-c2cc(-c3cccc(NC(=O)C(Cl)Cl)c3)on2)C1 (stereo not drawn) [Compound 565] | < 10
O=C(Nc1cccc(-c2cc(-c3c(Cl)cccc3N3CCN(C(=O)C(F)(F)F)CC3)no2)c1)C(Cl)Cl [Compound 566] | < 10
CCNC(=O)Oc1cccc(Cl)c1-c1cc(-c2cccc(NC(=O)C(Cl)Cl)c2)on1 [Compound 600] | < 10
O=C(Nc1cccc(-c2cc(-c3c(Cl)cccc3OCc3ccccc3)no2)c1)C(Cl)Cl [Compound 670] | < 10
O=C(Nc1cccc(-c2cc(-c3c(Cl)cccc3N3CCN(Cc4ccncc4)CC3)no2)c1)C(Cl)Cl [Compound 650] | < 10
O=C(Nc1cccc(Cl)c1-c1cc(-c2cccc(NC(=O)C(Cl)Cl)c2)on1)c1cccnc1 [Compound 562] | < 10
O=C(Nc1cccc(-c2cc(-c3c(Cl)cccc3N3CCC(Cc4ccccc4)CC3)no2)c1)C(Cl)Cl [Compound 637] | < 10
O=C(Nc1cccc(-c2cc(-c3c(Cl)cccc3N3CCN(C(=O)OCc4ccccc4)CC3)no2)c1)C(Cl)Cl [Compound 622] | < 10
O=C(Nc1cccc(-c2cc(-c3c(Cl)cccc3OCCC3CCNCC3)no2)c1)C(Cl)Cl [Compound 640] | < 10
O=C(Nc1cccc(-c2cc(-c3c(Cl)cccc3N3CCN(Cc4ccc(Cl)cc4)CC3)no2)c1)C(Cl)Cl [Compound 654] | < 10
O=C(Nc1cccc(-c2noc(-c3c(Cl)cccc3Cl)n2)c1)C(Cl)Cl [Compound 87, 2,2-Dichloro-N-[3-[5-(2,6-dichlorophenyl)-3-(1,2,4-oxadiazolyl)]phenyl]Acetamide] | < 10
O=C(Nc1cccc(-c2cc(-c3c(Cl)cccc3N3CCN(C(=O)c4cc5ccccc5[nH]4)CC3)no2)c1)C(Cl)Cl [Compound 555] | < 10
CS(=O)(=O)N1CCN(c2cccc(Cl)c2-c2cc(-c3cccc(NC(=O)C(Cl)Cl)c3)on2)CC1 [Compound 529] | < 10
O=C(Nc1cccc(-c2cc(-c3c(Cl)cccc3N3CCNCC3)no2)c1)C(Cl)Cl [Compound 511] | < 10
O=C(Nc1cccc(-c2cc(-c3c(Cl)cccc3N3CCN(C(=O)c4ccc(C(F)(F)F)cc4)CC3)no2)c1)C(Cl)Cl [Compound 661] | < 10
COc1cccc(C(=O)N2CCN(c3cccc(Cl)c3-c3cc(-c4cccc(NC(=O)C(Cl)Cl)c4)on3)CC2)c1 [Compound 659] | < 10
O=C(Nc1cccc(-c2cc(-c3c(Cl)cccc3Oc3cccnc3)no2)c1)C(Cl)Cl [Compound 559] | < 10
CN(C)C(=O)Oc1cccc(Cl)c1-c1cc(-c2cccc(NC(=O)C(Cl)Cl)c2)on1 [Compound 601] | < 10
O=C(Nc1cccc(-c2cc(-c3c(Cl)cccc3N3CCN(C(=O)C4CCCCN4)CC3)no2)c1)C(Cl)Cl (stereo not drawn) [Compound 666] | < 10
NC1CCN(c2cccc(Cl)c2-c2cc(-c3cccc(NC(=O)C(Cl)Cl)c3)on2)C1 (stereo not drawn) [Compound 504] | < 10
O=C(Nc1cccc(-c2cc(-c3c(Cl)cccc3N3CCN(C(=O)c4ccccn4)CC3)no2)c1)C(Cl)Cl [Compound 513] | < 10
CNC(=O)c1cccc(Cl)c1-c1cc(-c2cccc(NC(=O)C(Cl)Cl)c2)on1 [Compound 691] | < 10
O=C(Nc1cccc(-c2cc(-c3c(Cl)cccc3N3CCc4ccccc4C3)no2)c1)C(Cl)Cl [Compound 636] | < 10
O=C(NC1CCN(c2cccc(Cl)c2-c2cc(-c3cccc(NC(=O)C(Cl)Cl)c3)on2)CC1)c1ccccn1 [Compound 544] | < 10
CCCNC(=O)Oc1cccc(Cl)c1-c1cc(-c2cccc(NC(=O)C(Cl)Cl)c2)on1 [Compound 606] | < 10
CC(C)(C)OC(=O)N1CCN(c2cccc(Cl)c2-c2cc(-c3cccc(NC(=O)C(Cl)Cl)c3)on2)CC1 [Compound 510] | < 10
O=C(Nc1cccc(-c2cc(-c3c(Cl)cccc3N3CCN(CCN4CCCC4)CC3)no2)c1)C(Cl)Cl [Compound 652] | < 10

Structure (SMILES) | IC50 [µM]
CS(=O)(=O)N1CCC(Oc2cccc(Cl)c2-c2cc(-c3cccc(NC(=O)C(Cl)Cl)c3)on2)C1 (stereo not drawn) [Compound 596] | < 10
CC(=O)N1CCC(COc2cccc(Cl)c2-c2cc(-c3cccc(NC(=O)C(Cl)Cl)c3)on2)CC1 [Compound 634] | < 10
O=C(Nc1cccc(-c2cc(-c3c(Cl)cccc3OCc3ccncc3)no2)c1)C(Cl)Cl [Compound 604] | < 10
COC(=O)C1CC(Oc2cccc(Cl)c2-c2cc(-c3cccc(NC(=O)C(Cl)Cl)c3)on2)CN1 (stereo not drawn) [Compound 591] | < 10
CN(C)CCN1CCN(c2cccc(Cl)c2-c2cc(-c3cccc(NC(=O)C(Cl)Cl)c3)on2)CC1 [Compound 630] | < 10
CN(C)CCN(C)c1cccc(Cl)c1-c1cc(-c2cccc(NC(=O)C(Cl)Cl)c2)on1 [Compound 131, 2-Dichloro-N-[3-[3-[2-chloro-6-(N,N-dimethylethylene-N′-methylamino)phenyl]-5-isoxazolyl]-phenyl]Acetamide] | < 10
CS(=O)(=O)N1CCC(Oc2cccc(Cl)c2-c2cc(-c3cccc(NC(=O)C(Cl)Cl)c3)on2)CC1 [Compound 576] | < 10
O=C(Nc1cccc(-c2cc(-c3c(Cl)cccc3N3CCN(Cc4cccnc4)CC3)no2)c1)C(Cl)Cl [Compound 522] | < 10
NC(Cc1ccccc1)C(=O)N1CCN(c2cccc(Cl)c2-c2cc(-c3cccc(NC(=O)C(Cl)Cl)c3)on2)CC1 (stereo not drawn) [Compound 541] | > 10
CN(c1cccc(Cl)c1-c1cc(-c2cccc(NC(=O)C(Cl)Cl)c2)on1)C1CCN(C(=O)OC(C)(C)C)CC1 [Compound 580] | < 10
O=C(Nc1cccc(-c2cc(-c3c(Cl)cccc3N3CCN(C(=O)C4CCC4)CC3)no2)c1)C(Cl)Cl [Compound 641] | < 10
CC(C)(C)OC(=O)NC(Cc1ccccc1)C(=O)N1CCN(c2cccc(Cl)c2-c2cc(-c3cccc(NC(=O)C(Cl)Cl)c3)on2)CC1 (stereo not drawn) [Compound 532] | < 10
CN(c1cccc(Cl)c1-c1cc(-c2cccc(NC(=O)C(Cl)Cl)c2)on1)C1CCNCC1 [Compound 581] | < 10
CCOC(=O)N1CCN(c2cccc(Cl)c2-c2cc(-c3cccc(NC(=O)C(Cl)Cl)c3)on2)CC1 [Compound 624] | < 10
O=C(Nc1cccc(-c2cc(-c3c(Cl)cccc3N3CCN(C(=O)c4cnccn4)CC3)no2)c1)C(Cl)Cl [Compound 556] | < 10
COc1cccc(N2CCN(c3cccc(Cl)c3-c3cc(-c4cccc(NC(=O)C(Cl)Cl)c4)on3)CC2)c1 [Compound 524] | < 10
CC(=O)N1CCCC(Oc2cccc(Cl)c2-c2cc(-c3cccc(NC(=O)C(Cl)Cl)c3)on2)C1 (stereo not drawn) [Compound 585] | < 10
O=C(Nc1cccc(-c2cc(-c3c(Cl)cccc3N3CCN(c4cccc(Cl)c4)CC3)no2)c1)C(Cl)Cl [Compound 620] | < 10
O=C(Nc1cccc(-c2cc(-c3c(Cl)cccc3N3CCN(C(=O)c4c[nH]cn4)CC3)no2)c1)C(Cl)Cl [Compound 539] | < 10
CN(C(=O)C(Cl)Cl)c1cccc(-c2cc(-c3c(N)cccc3Cl)no2)c1 [Compound 564] | > 10
N#Cc1cccc(F)c1-c1cc(-c2cccc(NC(=O)C(Cl)Cl)c2)on1 [Compound 613] | < 10
O=C(Nc1cccc(-c2cc(-c3c(Cl)cccc3N3CCN(C(=O)C4CCCO4)CC3)no2)c1)C(Cl)Cl (stereo not drawn) [Compound 643] | < 10
CCC(=O)N1CCN(c2cccc(Cl)c2-c2cc(-c3cccc(NC(=O)C(Cl)Cl)c3)on2)CC1 [Compound 648] | < 10
O=C(Nc1cccc(-c2cc(-c3c(Cl)cccc3N3CCN(S(=O)(=O)c4ccccc4)CC3)no2)c1)C(Cl)Cl [Compound 514] | < 10
CN(c1cccc(Cl)c1-c1cc(-c2cccc(NC(=O)C(Cl)Cl)c2)on1)C1CCN(S(C)(=O)=O)CC1 [Compound 583] | < 10
O=C(Nc1cccc(-c2cc(-c3c(Cl)cccc3N3CCN(C(=O)c4ccco4)CC3)no2)c1)C(Cl)Cl [Compound 519] | < 10
CS(=O)(=O)Nc1cccc(Cl)c1-c1cc(-c2cccc(NC(=O)C(Cl)Cl)c2)on1 [Compound 561] | < 10

Same assay, conditions: Hepatitis C virus; 5-2 Luc replicon cells, luciferase readout; read-out: Replicon IC50

Structure (SMILES) | IC50 [µM]
O=C(O)c1ccccc1-c1cc(-c2cccc(NC(=O)C(Cl)Cl)c2)on1 [Compound 157, 2,2-Dichloro-N-[3-[3-(2-carboxyphenyl)-5-isoxazolyl]phenyl]Acetamide] | > 10
O=C(Nc1ccc(S(=O)(=O)NN2CCOCC2)c(-c2cc(-c3c(Cl)cccc3Cl)no2)c1)C(Cl)Cl [Compound 107, 2,2-Dichloro-N-[3-[3-(2,6-dichlorophenyl)-5-isoxazolyl]4-(N-morpholinosulfamoyl)-phenyl]Acetamide] | < 10
CN1CCN(c2cccc(Cl)c2-c2cc(-c3cccc(NC(=O)C(Cl)Cl)c3)on2)CC1 [Compound 99, 2,2-Dichloro-N-[3-[3-[2-chloro-6-(4-methylpiperazino)phenyl]-5-isoxazolyl]phenyl]Acetamide] | < 10

Reference: patent US7115642B2, “Substituted diphenyl isoxazoles, pyrazoles and oxadiazoles useful for treating HCV infection” (priority 2003, dated 2006)
